Test results as given in patent US8999957B2, “Heterocyclic compounds as ERK inhibitors” (Merck Sharp & Dohme Corp., priority 2010, dated 2015).
Read-outs that look alike come from different tables or passages of the source.

Molecular target: fully phosphorylated, mouse aERK2 enzyme (Mus musculus (Mouse), UniProt P63085)
Assay: Active ERK2 (aERK) IMAP-FP assay, condition 2
Assay type: biochemical
Experimental: Active ERK2 (aERK) Assay: (Unless Indicated Otherwise, the Data Provided for aERK was obtained using Condition 1)
Activated ERK2 activity was determined in an IMAP-FP assay (Molecular Devices). […] Phosphorylation reactions were allowed to proceed for 40-45 minutes and were immediately quenched by the addition of 60 μL IMAP detection beads (1:1000 dilutions) in IMAP binding buffer. Plates were read on EnVision reader after 30 minutes binding equilibration.

[1] = active ERK2, read-out: aErk2 Ic50
[2] = aERK assay condition 2, 30 uM ATP, read-out: aERK IC50

Chain of fully phosphorylated, mouse aERK2 enzyme (P63085 whole entry): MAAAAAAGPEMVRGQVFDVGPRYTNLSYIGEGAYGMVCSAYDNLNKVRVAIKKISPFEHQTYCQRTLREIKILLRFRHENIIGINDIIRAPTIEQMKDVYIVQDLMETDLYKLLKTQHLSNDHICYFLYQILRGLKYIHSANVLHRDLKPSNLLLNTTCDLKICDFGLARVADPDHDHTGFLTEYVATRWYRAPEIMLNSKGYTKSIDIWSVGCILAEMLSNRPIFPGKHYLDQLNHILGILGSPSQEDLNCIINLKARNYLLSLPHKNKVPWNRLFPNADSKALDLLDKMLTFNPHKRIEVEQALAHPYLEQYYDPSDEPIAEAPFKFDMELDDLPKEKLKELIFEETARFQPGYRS

SMILES	IC50 [1] [µM]	IC50 [2] [µM]
Cc1cc(-c2n[nH]c3ccc(C(=O)N[C@@H]4CC[C@@H](C(=O)N5CC(F)(F)C5)N(Cc5c(F)cccc5F)C4)cc23)ccn1 [N-[(3R,6S)-6-[(3,3-difluoroazetidin-1-yl)carbonyl]-1-(2,6-difluorobenzyl)piperidin-3-yl]-3-(2-methylpyridin-4-yl)-1H-indazole-5-carboxamide]	0.0965	
COc1cccc(F)c1CN1C[C@H](NC(=O)c2ccc3[nH]nc(-c4ccc5nc(C)sc5c4)c3c2)CC[C@H]1C(=O)N(C)C [N-[(3R,6S)-6-(dimethylcarbamoyl)-1-(2-fluoro-6-methoxybenzyl)piperidin-3-yl]-3-(2-methyl-1,3-benzothiazol-6-yl)-1H-indazole-5-carboxamide]	0.048	
CCN(CC)C(=O)[C@@H]1CC[C@@H](NC(=O)c2ccc3[nH]nc(-c4ccc5nn(C)cc5c4)c3c2)CN1Cc1c(F)cccc1OC	0.0394	
COc1cccc(F)c1CN1C[C@H](NC(=O)c2ccc3[nH]nc(-c4ccnc(C)c4)c3c2)CC[C@H]1C(=O)N1CCN(C(C)=O)CC1 [N-[(3R,6S)-6-[(4-acetylpiperazin-1-yl)carbonyl]-1-(2-fluoro-6-methoxybenzyl)-piperidin-3-yl]-3-(2-methylpyridin-4-yl)-1H-indazole-5-carboxamide]	0.0191	
COc1cccc(F)c1CN1C[C@H](NC(=O)c2ccc3[nH]nc(-c4ccnc(C)c4)c3c2)CC[C@H]1C(=O)N1CCCCO1 [N-[(3R,6S)-1-(2-fluoro-6-methoxybenzyl)-6-(1,2-oxazinan-2-ylcarbonyl)piperidin-3-yl]-3-(2-methylpyridin-4-yl)-1H-indazole-5-carboxamide]	0.0096	
CNC(=O)[C@@H]1CC[C@@H](NC(=O)c2ccc3[nH]nc(-c4ccncc4)c3c2)CN1Cc1c(F)cccc1OC [N-[(3R,6S)-1-(2-fluoro-6-methoxybenzyl)-6-(methylcarbamoyl)piperidin-3-yl]-3-pyridin-4-yl-1H-indazole-5-carboxamide]	0.0032	
COc1cccc(F)c1CN1C[C@H](NC(=O)c2ccc3[nH]nc(-c4ccncc4)c3c2)CC[C@H]1C(N)=O [N-[(3R,6S)-6-carbamoyl-1-(2-fluoro-6-methoxybenzyl)piperidin-3-yl]-3-pyridin-4-yl-1H-indazole-5-carboxamide]	0.0017	
CCN(CC)C(=O)[C@@H]1CC[C@@H](NC(=O)c2ccc3[nH]nc(-c4ccnc(C)c4)c3c2)CN1Cc1c(F)cccc1F [N-[(3R,6S)-6-(diethylcarbamoyl)-1-(2,6-difluorobenzyl)piperidin-3-yl]-3-(2-methylpyridin-4-yl)-1H-indazole-5-carboxamide]	0.0807	
CCNC(=O)N1CCN(C(=O)[C@@H]2CC[C@@H](NC(=O)c3ccc4[nH]nc(-c5ccnc(C)c5)c4c3)CN2Cc2c(F)cccc2OC)CC1 [N-[(3R,6S)-6-{[4-(ethylcarbamoyl)piperazin-1-yl]carbonyl}-1-(2-fluoro-6-methoxy-benzyl)piperidin-3-yl]-3-(2-methylpyridin-4-yl)-1H-indazole-5-carboxamide]	0.0164	
COc1cccc(F)c1CN1C[C@H](NC(=O)c2ccc3[nH]nc(-c4ccnc(C)c4)c3c2)CC[C@H]1C(=O)NCC(F)(F)F [N-{(3R,6S)-1-(2-fluoro-6-methoxybenzyl)-6-[(2,2,2-trifluoroethyl)carbamoyl]piperidin-3-yl}-3-(2-methylpyridin-4-yl)-1H-indazole-5-carboxamide]	0.0465	
[2H]C([2H])([2H])Oc1cccc(F)c1CN1C[C@H](NC(=O)c2ccc3[nH]nc(-c4ccc5nc(C)sc5c4)c3c2)CC[C@H]1C(N)=O	0.0034	
Cc1cc(-c2n[nH]c3ccc(C(=O)N[C@@H]4CC[C@@H](C(=O)N5CC(F)(F)C5)N(CCc5ccccc5)C4)cc23)ccn1 [N-[(3R,6S)-6-[(3,3-difluoroazetidin-1-yl)carbonyl]-1-(2-phenylethyl)piperidin-3-yl]-3-(2-methylpyridin-4-yl)-1H-indazole-5-carboxamide]	0.232	
COc1cccc(F)c1CN1C[C@H](NC(=O)c2ccc3[nH]nc(-c4ccnc(C)c4)c3c2)CC[C@H]1C(=O)N1CCC(Cl)CC1 [N-[(3R,6S)-6-[(4-chloropiperidin-1-yl)carbonyl]-1-(2-fluoro-6-methoxybenzyl)-piperidin-3-yl]-3-(2-methylpyridin-4-yl)-1H-indazole-5-carboxamide]	0.0483	
COc1cccc(F)c1CN1CCC[C@@H](NC(=O)c2ccc3[nH]nc(C4=CCOCC4)c3c2)C1 [3-(3,6-dihydro-2H-pyran-4-yl)-N-[(3R)-1-(2-fluoro-6-methoxy-benzyl)piperidin-3-yl]-1H-indazole-5-carboxamide]		0.0013
COc1cccc(F)c1CN1C[C@H](NC(=O)c2ccc3[nH]nc(-c4ccncc4)c3c2)CC[C@H]1C(=O)N1CCCC1 [N-[(3R,6S)-1-(2-fluoro-6-methoxybenzyl)-6-(pyrrolidin-1-ylcarbonyl)piperidin-3-yl]-3-pyridin-4-yl-1H-indazole-5-carboxamide]	0.0355	
COc1ccc(NC(=O)[C@@H]2CC[C@@H](NC(=O)c3ccc4[nH]nc(-c5ccnc(C)c5)c4c3)CN2Cc2c(F)cccc2OC)cc1F [N-{(3R,6S)-1-(2-fluoro-6-methoxybenzyl)-6-[(3-fluoro-4-methoxyphenyl)carbamoyl]piperidin-3-yl}-3-(2-methylpyridin-4-yl)-1H-indazole-5-carboxamide]		0.0167
CNC(=O)C(c1c(F)cccc1F)N1CCC[C@@H](NC(=O)c2ccc3[nH]nc(-c4ccncc4)c3c2)C1 (single isomer, unassigned) [drawing 505, N-((R)-1-((R or S)-1-(2,6-difluorophenyl)-2-(methylamino)-2-oxoethyl)-piperidin-3-yl)-3-(pyridin-4-yl)-1H-indazole-5-carboxamide]		0.451
COC(=O)N1CCN(C(=O)[C@@H]2CC[C@@H](NC(=O)c3ccc4[nH]nc(-c5ccnc(C)c5)c4c3)CN2Cc2c(F)cccc2OC)CC1 [methyl 4-{[(2S,5R)-1-(2-fluoro-6-methoxy-benzyl)-5-({[3-(2-methylpyridin-4-yl)-1H-indazol-5-yl]carbonyl}amino)piperidin-2-yl]carbonyl}piperazine-1-carboxylate]	0.0179	
COc1cccc(F)c1CN1C[C@H](NC(=O)c2ccc3[nH]nc(-c4ccnc(C)c4)c3c2)CC[C@H]1C(=O)NC[C@H]1CC[C@H](O)C1 [N-[(3R,6S)-1-(2-fluoro-6-methoxybenzyl)-6-({[(1S,3S)-3-hydroxycyclopentyl]methyl}carbamoyl)piperidin-3-yl]-3-(2-methylpyridin-4-yl)-1H-indazole-5-carboxamide]		0.0013
CCN(CC)C(=O)[C@@H]1CC[C@@H](NC(=O)c2ccc3[nH]nc(-c4ccnc(C)c4)c3c2)CN1Cc1c(F)cccc1OC [N-[(3R,6S)-6-(diethylcarbamoyl)-1-(2-fluoro-6-methoxybenzyl)piperidin-3-yl]-3-(2-methylpyridin-4-yl)-1H-indazole-5-carboxamide]	0.0162	
COc1cccc(F)c1CN1C[C@H](NC(=O)c2ccc3[nH]nc(-c4ccnc(C)c4)c3c2)CC[C@H]1C(=O)NC(C)C [N-{(3R,6S)-1-(2-fluoro-6-methoxybenzyl)-6-[(1-methylethyl)carbamoyl]piperidin-3-yl}-3-(2-methylpyridin-4-yl)-1H-indazole-5-carboxamide]	0.0465	
CCNC(=O)[C@@H]1CC[C@@H](NC(=O)c2ccc3[nH]nc(-c4ccncc4)c3c2)CN1Cc1ccccc1 [N-[(3R,6S)-1-benzyl-6-(ethylcarbamoyl)-piperidin-3-yl]-3-pyridin-4-yl-1H-indazole-5-carboxamide]	0.0483	
Cc1cc(-c2n[nH]c3ccc(C(=O)N[C@@H]4CC[C@@H](C(=O)N(C)C)N(Cc5cccs5)C4)cc23)ccn1 [N-[(3R,6S)-6-(dimethylcarbamoyl)-1-(thiophen-2-ylmethyl)piperidin-3-yl]-3-(2-methylpyridin-4-yl)-1H-indazole-5-carboxamide]	0.0144	
COc1cccc(F)c1CN1C[C@H](NC(=O)c2ccc3[nH]nc(-c4ccnc(C)c4)c3c2)CC[C@H]1C(=O)NCCF [N-[(3R,6S)-6-[(2-fluoroethyl)carbamoyl]-1-(2-fluoro-6-methoxybenzyl)piperidin-3-yl]-3-(2-methylpyridin-4-yl)-1H-indazole-5-carboxamide]	0.009	
COc1cccc(F)c1CN1C[C@H](NC(=O)c2ccc3[nH]nc(-c4ccnc(C)c4)c3c2)CC[C@H]1C(=O)NC1CC1 [N-[(3R,6S)-6-(cyclopropylcarbamoyl)-1-(2-fluoro-6-methoxybenzyl)piperidin-3-yl]-3-(2-methylpyridin-4-yl)-1H-indazole-5-carboxamide]		0.0034
COc1cccc(F)c1CN1C[C@H](NC(=O)c2ccc3[nH]nc(-c4ccnc(C)c4)c3c2)CC[C@H]1C(=O)N(C)C [N-[(3R,6S)-6-(dimethylcarbamoyl)-1-(2-fluoro-6-methoxybenzyl)piperidin-3-yl]-3-(2-methylpyridin-4-yl)-1H-indazole-5-carboxamide]	0.0378	
CCCN(C)C(=O)[C@@H]1CC[C@@H](NC(=O)c2ccc3[nH]nc(-c4ccnc(C)c4)c3c2)CN1Cc1c(F)cccc1OC [N-{(3R,6S)-1-(2-fluoro-6-methoxybenzyl)-6-[methyl(propyl)carbamoyl]piperidin-3-yl}-3-(2-methylpyridin-4-yl)-1H-indazole-5-carboxamide]	0.057	
COc1cccc(F)c1CN1CCC[C@@H](NC(=O)c2ccc3[nH]nc(C4CCOCC4)c3c2)C1 [N-[(3R)-1-(2-fluoro-6-methoxybenzyl)piperidin-3-yl]-3-(tetrahydro-2H-pyran-4-yl)-1H-indazole-5-carboxamide]		0.195
CNC(=S)NNC(=O)[C@@H]1CC[C@@H](NC(=O)c2ccc3[nH]nc(-c4ccnc(C)c4)c3c2)CN1Cc1c(F)cccc1OC [N-[(3R,6S)-1-(2-fluoro-6-methoxybenzyl)-6-{[2-(methylcarbamothioyl)hydrazino]-carbonyl}piperidin-3-yl]-3-(2-methylpyridin-4-yl)-1H-indazole-5-carboxamide]	0.001	
